The nature of series [1]: Sub dermal penetration of iodine measured by iodine analysis of 24 hour urine. It is filed as in vivo, human. As to conditions: 300 ppm molecular iodine applied to skin 4 times over six hours; lines = Subjects 1-3 (prior: 95, 114, 106); listed as I2. The protocol: 11. The 300 ppm samples of molecular iodine described in Example 1 was used to confirm that molecular iodine will penetrate into skin and permeate into the skin to provide sub dermal tissue penetration.
Application of the iodine solution onto skin was performed as described in Example 1 above with two exceptions: (1) the contacted area was flushed with water for 15 seconds immediately after following contact between the iodine solution and skin and (2) the sample was applied to the skin once every 2 hours over a six hour time period (4 applications).
Twenty-four hour urine samples were collected on three subjects for the day immediately prior to the experiment. […] The urine samples were analyzed to determine their total iodine content. Urinary concentrations of total iodide were measured by utilizing the reduction-oxidation reaction between ceric ioni and arsenite ion catalyzed by iodide. […] Arsenious acid was added, the samples were transferred to an autoanalyzer, ceric ammonium sulfate was added “on line” and the optical transmission was measured spectrophometrically at 420 nm. […] If the yellow color fades to colorless (clear) within 1.5 minutes, the iodine content is too high to be measured. […] The % transmission was recorded and the concentration of iodine in each sample was determined by comparison to the standards.

In series [2] the test system is Candida albicans. Briefly: Residual biocidal effect of skin associated iodine, repeated experiment. It is filed as in vivo. The settings on record: saturated molecular iodine solution (320 ppm).
For series [3], the system named is Salmonella typhimurium. The description is as above. The class given is in vivo. As to conditions: saturated molecular iodine solution (320 ppm).
In series [4] the test system is Pseudomonas aeruginosa. The description is as above. As to conditions: saturated molecular iodine solution (320 ppm). It is filed as in vivo.
Series [5] in a line: Concentration of molecular iodine in a saturated solution. The class given is physicochemical. As to conditions: pH of 4.5. As to the method: 5. […] A saturated solution of molecular iodine was prepared at a pH of 4.5. The concentration of molecular iodine was measured to be 320 ppm and the concentration of triiodide was determined to be less than 5 ppm. A 1.0 dram vial containing four mL of the saturated iodine solution was contacted with the forearm of a subject and then the forearm was inverted to initiate contact of the sample with the molecular iodine solution. The samples were contacted with the arm for 30 seconds. After contact the treated arm was flushed with water for 15 seconds and dried.

The subject of series [6] is Staphylococcus aureus. Briefly: Residual biocidal effect of skin associated iodine, colony counts from inoculated treated skin. The class given is in vivo. As to conditions: 320 ppm saturated molecular iodine solution, 30 second contact; inoculated two hours after contact, sampled ninety minutes after inoculation. As to the method:
5. […] […] […] […] The samples were contacted with the arm for 30 seconds. After contact the treated arm was flushed with water for 15 seconds and dried.
[…] Two hours after contact each area was inoculated with […] of a 1:100 dilution of a 48 hour soy-trypticase culture of Staphylococcus aureus. Ninety minutes after inoculation the mouths of sterile 25 mL flasks filled with 2 mL of soy-trypticase with 2% Tween 80 were placed over the marked skin areas. The flasks were gently shaken for 1 minute and a colony count was performed on blood agar plates after incubation at 37° C. for 48 hours. The residual biocidal effect from skin associated molecular iodine was determined by subtracting the log of the colony counts from the areas of skin that were contacted with iodine from the controls (log colony count from untreated skin). The average difference in colony counts between treated and untreated skin was 2.4 logs.

Where “and” joins values, the source holds several entries; their conditions need not be identical. Equal entries are not always repeated.

Take `II` [Molecular Iodine, molecular iodine]: the “24 Hour Urine iodine, Post I2 Application” value in series [1] was 647 ug iodine and 846 ug iodine and 741 ug iodine. Further, the “Residual biocidal efficacy on skin” value in series [2] and in series [3] was “Efficacy was also demonstrated” each time. Also, the “Log reduction (smallest observed)” value in series [4] is given as 0.5 logs. The “Concentration of molecular iodine in saturated solution” value in series [5] was found to be 320 ppm. Further, the “Average difference in colony counts between treated and untreated skin” value in series [6] is 2.4 logs.

The record behind these values is US6432426B1, “Non-staining topical iodine composition and method” (Symbollon Corporation, priority 1998, dated 2002).
